Data published in PubChem BioAssay AID1745844 (Carcinogenic Potency Database (CPDB), 2022).
The source made the active and inactive calls. No rule for the calls is given here.

Test system: rodent lifetime carcinogenesis bioassay, tumor incidence TD50
Test: chronic cancer bioassays in animals – CPDB, compiled studies (AID 1745844)

With `Cc1ccc2c(c1[N+](=O)[O-])C(=O)c1ccccc1C2=O` the TD50 (mouse, strain B6C3F1, females, in feed, site: any site (literature study), lesion: several types, types named in the paper, dosed 49 weeks, study length 49 weeks) was 1.76 mg/kg/day, the TD50 (mouse, strain B6C3F1, females, in feed, site: lung, lesion: alveolar/bronchiolar adenoma + alveolar/bronchiolar carcinoma, dosed 49 weeks, study length 49 weeks) was 97.3 mg/kg/day and the TD50 (mouse, strain B6C3F1, females, in feed, site: subcutaneous tissue, lesion: hemangiosarcoma, dosed 49 weeks, study length 49 weeks) was 1.88 mg/kg/day. It also gave a TD50 (mouse, strain B6C3F1, males, in feed, site: any site (literature study), lesion: several types, types named in the paper, dosed 46 weeks, study length 46 weeks) of 1.02 mg/kg/day, a TD50 (mouse, strain B6C3F1, males, in feed, site: lung, lesion: alveolar/bronchiolar adenoma + alveolar/bronchiolar carcinoma, dosed 46 weeks, study length 46 weeks) of 45.5 mg/kg/day and a TD50 (mouse, strain B6C3F1, males, in feed, site: subcutaneous tissue, lesion: hemangiosarcoma, dosed 46 weeks, study length 46 weeks) of 1.34 mg/kg/day. The TD50 (rat, strain Fischer 344, females, in feed, site: any site (literature study), lesion: several types, types named in the paper, dosed 78 weeks, study length 109 weeks) was 47.1 mg/kg/day, the TD50 (rat, strain Fischer 344, females, in feed, site: liver, lesion: hepatocellular adenoma + hepatocellular carcinoma + neoplastic nodule, dosed 78 weeks, study length 109 weeks) was 324 mg/kg/day and the TD50 (rat, strain Fischer 344, females, in feed, site: liver, lesion: hepatocellular carcinoma + neoplastic nodule, dosed 78 weeks, study length 109 weeks) was 324 mg/kg/day. For the same molecule, the TD50 (rat, strain Fischer 344, females, in feed, site: liver, lesion: hepatocellular carcinoma, dosed 78 weeks, study length 109 weeks) was 547 mg/kg/day, the TD50 (rat, strain Fischer 344, females, in feed, site: pituitary gland, lesion: adenoma, dosed 78 weeks, study length 109 weeks) was 63.4 mg/kg/day and the TD50 (rat, strain Fischer 344, females, in feed, site: stomach, lesion: squamous-cell carcinoma, dosed 78 weeks, study length 109 weeks) was 507 mg/kg/day. For the same molecule, the TD50 (rat, strain Fischer 344, females, in feed, site: subcutaneous tissue, lesion: fibroma, dosed 78 weeks, study length 109 weeks) was 131 mg/kg/day, the TD50 (rat, strain Fischer 344, females, in feed, site: urinary bladder, lesion: papilloma, NOS + sarcoma, NOS + transitional-cell papilloma, dosed 78 weeks, study length 109 weeks) was 224 mg/kg/day and the TD50 (rat, strain Fischer 344, males, in feed, site: any site (literature study), lesion: several types, types named in the paper, dosed 78 weeks, study length 109 weeks) was 31.9 mg/kg/day. For the same molecule, the TD50 (rat, strain Fischer 344, males, in feed, site: liver, lesion: hepatocellular adenoma + hepatocellular carcinoma + neoplastic nodule, dosed 78 weeks, study length 109 weeks) was 48.8 mg/kg/day, the TD50 (rat, strain Fischer 344, males, in feed, site: liver, lesion: hepatocellular carcinoma + neoplastic nodule, dosed 78 weeks, study length 109 weeks) was 48.8 mg/kg/day and the TD50 (rat, strain Fischer 344, males, in feed, site: liver, lesion: hepatocellular carcinoma, dosed 78 weeks, study length 109 weeks) was 89.2 mg/kg/day. It also gave a TD50 (rat, strain Fischer 344, males, in feed, site: liver, lesion: neoplastic nodule, dosed 78 weeks, study length 109 weeks) of 133 mg/kg/day and a TD50 (rat, strain Fischer 344, males, in feed, site: subcutaneous tissue, lesion: fibroma, dosed 78 weeks, study length 109 weeks) of 25.8 mg/kg/day.
For `C=CC(O)c1ccc(OC)cc1` (stereo unspecified), the TD50 (mouse, strain Charles River CD1, females, in feed, site: liver, lesion: hepatoma, dosed 51 weeks, study length 86 weeks) was 57.8 mg/kg/day.
`Cc1noc(NS(=O)(=O)c2ccc(N)cc2)c1C` was tested, and the TD50 (mouse, strain B6C3F1, females, in feed, site: any site (literature study), lesion: several types, types named in the paper, dosed 103 weeks, study length 104 weeks) was 8180 mg/kg/day, the TD50 (mouse, strain B6C3F1, females, in feed, site: liver, lesion: hepatocellular adenoma + hepatocellular carcinoma + neoplastic nodule, dosed 103 weeks, study length 104 weeks) was 2650 mg/kg/day and the TD50 (mouse, strain B6C3F1, females, in feed, site: liver, lesion: hepatocellular carcinoma, dosed 103 weeks, study length 104 weeks) was 2650 mg/kg/day (inactive). The TD50 (mouse, strain B6C3F1, females, in feed, site: lung, lesion: alveolar/bronchiolar adenoma + alveolar/bronchiolar carcinoma, dosed 103 weeks, study length 104 weeks) was 11900 mg/kg/day, the carcinogen call (mouse, strain B6C3F1, males, in feed, site: any site (literature study), lesion: several types, types named in the paper, dosed 103 weeks, study length 104 weeks) was “negative (inactive)” and the TD50 (mouse, strain B6C3F1, males, in feed, site: liver, lesion: hepatocellular adenoma + hepatocellular carcinoma + neoplastic nodule, dosed 103 weeks, study length 104 weeks) was 6910 mg/kg/day. For the same molecule, the TD50 (mouse, strain B6C3F1, males, in feed, site: lung, lesion: alveolar/bronchiolar adenoma + alveolar/bronchiolar carcinoma, dosed 103 weeks, study length 104 weeks) was 49500 mg/kg/day, the carcinogen call (rat, strain Fischer 344, females, in feed, site: any site (literature study), lesion: several types, types named in the paper, dosed 103 weeks, study length 106 weeks) was “negative (inactive)” and the TD50 (rat, strain Fischer 344, males, in feed, site: any site (literature study), lesion: several types, types named in the paper, dosed 103 weeks, study length 105 weeks) was 135 mg/kg/day (inactive). For the same molecule, the TD50 (rat, strain Fischer 344, males, in feed, site: liver, lesion: hepatocellular adenoma + hepatocellular carcinoma + neoplastic nodule, dosed 103 weeks, study length 105 weeks) was 26300 mg/kg/day.
Work on `Cn1cc(C(=O)O)c(=O)c2ccc(/C=C/c3ccc([N+](=O)[O-])o3)nc21` yielded a TD50 (mouse, strain ICR/Jcl, both sexes, in feed, site: forestomach, lesion: squamous-cell carcinoma, dosed 54 weeks, study length 54 weeks) of 10.3 mg/kg/day, a TD50 (mouse, strain ICR/Jcl, both sexes, in feed, site: lung, lesion: adenoma, dosed 54 weeks, study length 54 weeks) of 8.03 mg/kg/day and a TD50 (mouse, strain ICR/Jcl, both sexes, in feed, site: lung, lesion: carcinoma, dosed 54 weeks, study length 54 weeks) of 21.9 mg/kg/day. For the same molecule, the TD50 (mouse, strain ICR/Jcl, both sexes, in feed, site: thymus gland, lesion: lymphatic leukemia, dosed 54 weeks, study length 54 weeks) was 26.5 mg/kg/day.
In the case of `Cc1ccc(O)c(O)c1`, the TD50 (rat, strain F344/DuCrj, females, in feed, site: forestomach, lesion: squamous-cell carcinoma, dosed 104 weeks, study length 104 weeks) is reported as 1500 mg/kg/day, the TD50 (rat, strain F344/DuCrj, females, in feed, site: forestomach, lesion: squamous-cell papilloma, dosed 104 weeks, study length 104 weeks) is reported as 253 mg/kg/day and the TD50 (rat, strain F344/DuCrj, females, in feed, site: stomach, glandular, lesion: adenocarcinoma, dosed 104 weeks, study length 104 weeks) is reported as 1090 mg/kg/day. For the same molecule, the carcinogen call (rat, strain F344/DuCrj, females, in feed, site: stomach, glandular, lesion: adenoma, dosed 104 weeks, study length 104 weeks) was “positive”, the TD50 (rat, strain F344/DuCrj, females, in feed, site: stomach, glandular, lesion: sarcoma, dosed 104 weeks, study length 104 weeks) was 6500 mg/kg/day and the TD50 (rat, strain F344/DuCrj, males, in feed, site: forestomach, lesion: squamous-cell carcinoma, dosed 104 weeks, study length 104 weeks) was 719 mg/kg/day. The TD50 (rat, strain F344/DuCrj, males, in feed, site: forestomach, lesion: squamous-cell papilloma, dosed 104 weeks, study length 104 weeks) was 468 mg/kg/day, the TD50 (rat, strain F344/DuCrj, males, in feed, site: stomach, glandular, lesion: adenocarcinoma, dosed 104 weeks, study length 104 weeks) was 656 mg/kg/day and the carcinogen call (rat, strain F344/DuCrj, males, in feed, site: stomach, glandular, lesion: adenoma, dosed 104 weeks, study length 104 weeks) was “positive”. For the same molecule, the TD50 (rat, strain F344/DuCrj, males, in feed, site: stomach, glandular, lesion: sarcoma, dosed 104 weeks, study length 104 weeks) was 3830 mg/kg/day.
For `CNN`, the TD50 (hamster, strain Syrian Golden, females, in drinking water, site: cecum, lesion: polypoid adenoma, dosed 86 weeks, study length 86 weeks) was 29.8 mg/kg/day, the TD50 (hamster, strain Syrian Golden, females, in drinking water, site: cecum, lesion: several types, types named in the paper, dosed 86 weeks, study length 86 weeks) was 25.8 mg/kg/day and the TD50 (hamster, strain Syrian Golden, females, in drinking water, site: liver, lesion: histiocytoma, malignant, dosed 86 weeks, study length 86 weeks) was 15.4 mg/kg/day. The TD50 (hamster, strain Syrian Golden, females, in drinking water, site: liver, lesion: several types, types named in the paper, dosed 86 weeks, study length 86 weeks) was 30.8 mg/kg/day, the TD50 (hamster, strain Syrian Golden, females, in drinking water, site: lung, lesion: angiosarcoma, dosed 86 weeks, study length 86 weeks) was 297 mg/kg/day (inactive) and the TD50 (hamster, strain Syrian Golden, males, in drinking water, site: cecum, lesion: polypoid adenoma, dosed 100 weeks, study length 100 weeks) was 50.7 mg/kg/day. The TD50 (hamster, strain Syrian Golden, males, in drinking water, site: cecum, lesion: several types, types named in the paper, dosed 100 weeks, study length 100 weeks) was 42.1 mg/kg/day, the TD50 (hamster, strain Syrian Golden, males, in drinking water, site: liver, lesion: histiocytoma, malignant, dosed 100 weeks, study length 100 weeks) was 9.2 mg/kg/day and the carcinogen call (mouse, strain Swiss, females, by gavage, site: lung, lesion: one or several types, types not named, dosed 40 weeks, study length 55 weeks) was “negative (inactive)”. It also gave a TD50 (mouse, strain Swiss, females, in drinking water, site: bile duct, lesion: cholangioma, dosed 62 weeks, study length 62 weeks) of 29.2 mg/kg/day, a TD50 (mouse, strain Swiss, females, in drinking water, site: bile duct, lesion: several types, types named in the paper, dosed 62 weeks, study length 62 weeks) of 24.6 mg/kg/day and a TD50 (mouse, strain Swiss, females, in drinking water, site: liver, lesion: hepatoma, dosed 62 weeks, study length 62 weeks) of 51.1 mg/kg/day. The TD50 (mouse, strain Swiss, females, in drinking water, site: liver, lesion: several types, types named in the paper, dosed 113 weeks, study length 113 weeks) was 47.2 mg/kg/day, the TD50 (mouse, strain Swiss, females, in drinking water, site: lung, lesion: adenocarcinoma, dosed 113 weeks, study length 113 weeks) was 5.63 mg/kg/day and the TD50 (mouse, strain Swiss, females, in drinking water, site: lung, lesion: adenoma, dosed 62 weeks, study length 62 weeks) was 19.6 mg/kg/day. For the same molecule, the TD50 (mouse, strain Swiss, females, in drinking water, site: lung, lesion: adenoma, dosed 113 weeks, study length 113 weeks) was 4.02 mg/kg/day, the TD50 (mouse, strain Swiss, females, in drinking water, site: lung, lesion: several types, types named in the paper, dosed 62 weeks, study length 62 weeks) was 21.4 mg/kg/day and the TD50 (mouse, strain Swiss, females, in drinking water, site: lung, lesion: several types, types named in the paper, dosed 113 weeks, study length 113 weeks) was 2.98 mg/kg/day. The TD50 (mouse, strain Swiss, males, in drinking water, site: all sites, lesion: malignant lymphoma, dosed 112 weeks, study length 112 weeks) was 7.85 mg/kg/day, the TD50 (mouse, strain Swiss, males, in drinking water, site: bile duct, lesion: several types, types named in the paper, dosed 69 weeks, study length 69 weeks) was 22.5 mg/kg/day and the TD50 (mouse, strain Swiss, males, in drinking water, site: liver, lesion: hepatoma, dosed 69 weeks, study length 69 weeks) was 7.25 mg/kg/day. It also gave a TD50 (mouse, strain Swiss, males, in drinking water, site: liver, lesion: several types, types named in the paper, dosed 69 weeks, study length 69 weeks) of 4.58 mg/kg/day, a TD50 (mouse, strain Swiss, males, in drinking water, site: lung, lesion: adenocarcinoma, dosed 112 weeks, study length 112 weeks) of 12 mg/kg/day and a TD50 (mouse, strain Swiss, males, in drinking water, site: lung, lesion: adenoma, dosed 69 weeks, study length 69 weeks) of 10.1 mg/kg/day. It also gave a TD50 (mouse, strain Swiss, males, in drinking water, site: lung, lesion: adenoma, dosed 112 weeks, study length 112 weeks) of 2.93 mg/kg/day and a TD50 (mouse, strain Swiss, males, in drinking water, site: lung, lesion: several types, types named in the paper, dosed 112 weeks, study length 112 weeks) of 2.51 mg/kg/day.
